Measurements reported in US6506766B1 (Abbott Laboratories, priority 1998, dated 2003).
Read-outs that look alike come from different tables or passages of the source.

Tests used:
[1] = biological target: T1, human glucocorticoid receptor-α [GRX] isoform (Homo sapiens, UniProt P04150); assay: Radioligand binding with human glucocorticoid receptor cytosol ([3H]-dexamethasone competition); conditions: read-out: Ki (nM) GR
T1 construct: host or cells: insect SF21 cells (baculovirus)
T1 sequence (P04150 1-777): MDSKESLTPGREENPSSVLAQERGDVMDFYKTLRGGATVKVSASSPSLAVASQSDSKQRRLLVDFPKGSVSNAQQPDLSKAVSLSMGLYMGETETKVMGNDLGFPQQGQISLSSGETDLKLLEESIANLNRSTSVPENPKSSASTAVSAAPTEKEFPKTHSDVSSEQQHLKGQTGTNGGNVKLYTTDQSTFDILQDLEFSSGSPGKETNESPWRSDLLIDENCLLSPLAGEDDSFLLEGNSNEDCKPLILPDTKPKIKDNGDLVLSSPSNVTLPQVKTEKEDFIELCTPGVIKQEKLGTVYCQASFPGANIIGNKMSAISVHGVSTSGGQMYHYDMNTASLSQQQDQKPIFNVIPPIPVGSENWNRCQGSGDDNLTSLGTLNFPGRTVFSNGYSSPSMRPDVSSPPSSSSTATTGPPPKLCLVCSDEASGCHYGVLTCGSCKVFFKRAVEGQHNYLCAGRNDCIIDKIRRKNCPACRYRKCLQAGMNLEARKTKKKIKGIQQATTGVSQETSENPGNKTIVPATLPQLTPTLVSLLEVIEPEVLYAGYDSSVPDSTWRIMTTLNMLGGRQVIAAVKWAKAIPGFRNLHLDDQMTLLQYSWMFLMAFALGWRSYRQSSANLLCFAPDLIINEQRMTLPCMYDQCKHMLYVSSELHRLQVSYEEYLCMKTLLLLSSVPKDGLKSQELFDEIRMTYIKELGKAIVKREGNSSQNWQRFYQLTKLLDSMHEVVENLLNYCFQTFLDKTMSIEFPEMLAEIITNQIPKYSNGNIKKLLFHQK

[2] = biological target: T2, human progesterone receptor-A [PRA] isoform (Homo sapiens, UniProt P06401); assay: Radioligand binding with human progesterone receptor cytosol ([3H]-progesterone competition); conditions: read-out: Ki (nM) PR
T2 construct: host or cells: insect SF21 cells (baculovirus)
T2 sequence (P06401 1-769 isoform P06401-2): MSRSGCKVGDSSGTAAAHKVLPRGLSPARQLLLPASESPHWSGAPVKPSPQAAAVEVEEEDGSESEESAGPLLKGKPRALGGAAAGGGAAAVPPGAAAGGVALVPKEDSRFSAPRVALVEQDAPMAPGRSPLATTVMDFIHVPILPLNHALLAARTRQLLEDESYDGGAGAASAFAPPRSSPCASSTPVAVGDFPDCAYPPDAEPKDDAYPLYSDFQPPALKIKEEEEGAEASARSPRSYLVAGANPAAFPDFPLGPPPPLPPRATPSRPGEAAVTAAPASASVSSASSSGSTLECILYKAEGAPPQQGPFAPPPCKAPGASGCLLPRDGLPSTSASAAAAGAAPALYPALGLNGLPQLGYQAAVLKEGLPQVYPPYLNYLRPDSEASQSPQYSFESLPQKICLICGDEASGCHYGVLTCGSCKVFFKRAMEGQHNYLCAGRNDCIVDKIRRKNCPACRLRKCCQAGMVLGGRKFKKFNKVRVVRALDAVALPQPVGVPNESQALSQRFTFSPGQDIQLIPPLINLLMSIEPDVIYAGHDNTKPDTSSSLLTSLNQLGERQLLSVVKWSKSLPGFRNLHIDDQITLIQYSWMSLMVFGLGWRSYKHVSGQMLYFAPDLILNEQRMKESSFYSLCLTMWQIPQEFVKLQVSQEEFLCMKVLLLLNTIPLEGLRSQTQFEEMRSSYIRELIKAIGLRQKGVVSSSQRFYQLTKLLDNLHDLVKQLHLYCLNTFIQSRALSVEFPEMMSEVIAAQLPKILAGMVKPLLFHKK

[3] = GRX cytosol expressed in insect SF21 cells, [3H]-Dex ~0.9 nM, 4° C. overnight, Ki by Cheng-Prusoff, KL ~[…]
[4] = PRA cytosol expressed in insect SF21 cells, [3H]Prog ~0.8 nM, 4° C. overnight, Ki by Cheng-Prusoff, KL ~4.5 nM

CC1=CC(C)(C)Nc2ccc3c(c21)C(CC(C)C)Oc1ccc(O)c(Cl)c1-3 (centres unmarked) [Example 409, 2,5-Dihydro-9-hydroxy-10-chloro-2,2,4-trimethyl-5-(2-methylpropyl)-1H-[1]benzopyrano[3,4-f]quinoline]
Ki [1, 3]: 2.7 nM
Ki [2, 4]: 42 nM

C=CCC1Oc2ccc(CO)c(Cl)c2-c2ccc3c(c21)C(C)=CC(C)(C)N3 (centres unmarked) [Example 410, 2,5-Dihydro-9-hydroxymethyl-10-chloro-2,2,4-trimethyl-5-allyl-1H-[1]benzopyrano[3,4-f]quinoline]
Ki [1, 3]: 1.1 nM
Ki [2, 4]: 25.7 nM

COc1c(O)ccc2c1-c1ccc3c(c1C(=Cc1cccc(F)c1)O2)C(C)=CC(C)(C)N3 [Example 412, 9-Hydroxy-10-methoxy-5-([3-fluorophenyl]methylene)-2,2,4-trimethyl-1H-2,5-dihydro-[1]benzopyrano[3,4-f]quinoline]
Ki [1, 3]: 9 nM
Ki [2, 4]: 222 nM

CC1=CC(C)(C)Nc2ccc3c(c21)C(=Cc1ccccn1)Oc1ccc(O)c(Cl)c1-3 [Example 413, 9-Hydroxy-10-chloro-5-([2-pyridyl]methylene)-2,2,4-trimethyl-1H-2,5-dihydro-[1]benzopyrano[3,4-f]quinoline]
Ki [1, 3]: 0.22 nM
Ki [2, 4]: 60.8 nM

COc1c(O)ccc2c1-c1ccc3c(c1C(c1cc(Cl)cc(Cl)c1)O2)C(C)=CC(C)(C)N3 (centres unmarked) [Example 416, 2,5-Dihydro-9-hydroxy-10-methoxy-2,2,4-trimethyl-5-(3,5-dichlorophenyl)-1H-[1]benzopyrano[3,4-f]quinoline]
Ki [1, 3]: 3.1 nM
Ki [2, 4]: 394 nM

CC1=C[C@@H]([C@@H]2Oc3ccc(O)c(Cl)c3-c3ccc4c(c32)C(C)=CC(C)(C)N4)CCC1 [Example 417, (−)(5S,3′S)2,5-Dihydro-9-hydroxy-10-chloro-2,2,4-trimethyl-5-(1-methylcyclohexen-3-yl)-1H-[1]benzopyrano[3,4-f]quinoline]
Ki [1, 3]: 3 nM
Ki [2, 4]: 10.5 nM

CC1=C[C@H]([C@@H]2Oc3ccc(O)c(Cl)c3-c3ccc4c(c32)C(C)=CC(C)(C)N4)CCC1 [Example 418]
Ki [1, 3]: 1.4 nM
Ki [2, 4]: 2.1 nM

CC1=C[C@@H]([C@H]2Oc3ccc(O)c(Cl)c3-c3ccc4c(c32)C(C)=CC(C)(C)N4)CCC1 [Example 419, (+)(5R,3′S)2,5-Dihydro-9-hydroxy-10-chloro-2,2,4-trimethyl-5-(1-methylcyclohexen-3-yl)-1H-[1]benzopyrano[3,4-f]quinoline]
Ki [1, 3]: 56.9 nM
Ki [2, 4]: 286 nM

CC1=C[C@H]([C@H]2Oc3ccc(O)c(Cl)c3-c3ccc4c(c32)C(C)=CC(C)(C)N4)CCC1 [Example 420]
Ki [1, 3]: 125 nM
Ki [2, 4]: 2400 nM

COc1c(OC(=O)CCC(=O)N(C)C)ccc2c1-c1ccc3c(c1C(C(C)C)O2)C(C)=CC(C)(C)N3 (centres unmarked) [Example 423, 2,5-Dihydro-9-(4-N,N-dimethylamino-4-oxo-butanoyloxy)-10-methoxy-2,2,4-trimethyl-5-(1-methylethyl)-1H-[1]benzopyrano[3,4-f]quinoline]
Ki [1, 3]: 0.67 nM
Ki [2, 4]: 8180 nM

COc1c(OC(=O)CCC(=O)N(C)C)ccc2c1-c1ccc3c(c1C(Cc1ccccc1)O2)C(C)=CC(C)(C)N3 (centres unmarked) [Example 424, 2,5-Dihydro-9-(4-N,N-dimethylamino-4-oxo-butanoyloxy)-10-methoxy-5-(phenylmethyl)-2,2,4-trimethyl-1H-[1]benzopyrano[3,4-f]quinoline]
Ki [1, 3]: 0.84 nM
Ki [2, 4]: 1950 nM

COc1c(OC(=O)CCC(=O)N(C)C)ccc2c1-c1ccc3c(c1C(c1cccs1)O2)C(C)=CC(C)(C)N3 (centres unmarked) [Example 425, 2,5-Dihydro-9-(4-N,N-dimethylamino-4-oxo-butanoyloxy)-10-methoxy-2,2,4-trimethyl-5-(2-thienyl)-1H-[1]benzopyrano[3,4-f]quinoline]
Ki [1, 3]: 0.35 nM
Ki [2, 4]: 3940 nM

C=CCC1Oc2ccc(OC(=O)CCCN(C)C)c(OC)c2-c2ccc3c(c21)C(C)=CC(C)(C)N3 (centres unmarked) [Example 426, 2,5-Dihydro-9-(4-N,N-dimethylaminobutanoyloxy)-10-methoxy-2,2,4-trimethyl-5-(2-propenyl)-1H-[1]benzopyrano[3,4-f]quinoline]
Ki [1, 3]: 0.85 nM
Ki [2, 4]: 110 nM

C=CCC1Oc2ccc(OC(=O)NCC(=O)OCC)c(OC)c2-c2ccc3c(c21)C(C)=CC(C)(C)N3 (centres unmarked) [Example 427, 9-(2-Ethoxy-2-oxo-ethylaminocarbonyl)-oxy-10-methoxy-5-(3-propenyl)-2,2,4-trimethyl-1H-2,5-dihydro-[1]benzopyrano[3,4-f]quinoline]
Ki [1]: 7.8 nM
Ki [2]: 2200 nM

COc1c(O)ccc2c1-c1ccc3c(c1C(=Cc1ccccc1)O2)C(C)=CC(C)(C)N3 [Example 430, 9-Hydroxy-10-methoxy-5-(phenylmethylene)-2,2,4-trimethyl-1H-2,5-dihydro-[1]benzopyrano[3,4-f]quinoline]
Ki [1, 3]: 4.8 nM
Ki [2, 4]: 281 nM

C=CCC1Oc2ccc(OC(=S)N(C)C)c(OC)c2-c2ccc3c(c21)C(C)=CC(C)(C)N3 (centres unmarked) [Example 431, 9-(Dimethylaminothiocarbonyl)-oxy-10-methoxy-5-(3-propenyl)-2,2,4-trimethyl-1H-2,5-dihydro-[1]benzopyrano[3,4-f]quinoline]
Ki [1, 3]: 113 nM
Ki [2, 4]: ≥ 10000 nM

CC1=CC(C)(C)Nc2ccc3c(c21)C(c1cc(F)c(F)c(F)c1)Oc1ccc(O)c(Cl)c1-3 (centres unmarked) [Example 435, 2,5-Dihydro-9-hydroxy-10-chloro-2,2,4-trimethyl-5-(3,4,5-trifluorophenyl)-1H-[1]benzopyrano[3,4-f]quinoline]
Ki [1, 3]: 120 nM
Ki [2, 4]: 734 nM

C=CCC1Oc2ccc(OCSC)c(OC)c2-c2ccc3c(c21)C(C)=CC(C)(C)N3 (centres unmarked) [Example 436, 2,5-Dihydro-9-methylthiomethoxy-10-methoxy-2,2,4-trimethyl-5-allyl-1H-[1]benzopyrano[3,4-f]quinoline]
Ki [1, 3]: 18.8 nM
Ki [2, 4]: 5920 nM

C=CCC1Oc2ccc(OC(=O)CCCC(=O)N(CC)CC)c(OC)c2-c2ccc3c(c21)C(C)=CC(C)(C)N3 (centres unmarked) [Example 437]
Ki [1, 3]: 0.97 nM
Ki [2, 4]: 449 nM

C=CCC1Oc2ccc(OC(=O)CCCC(=O)N(C)C)c(OC)c2-c2ccc3c(c21)C(C)=CC(C)(C)N3 (centres unmarked) [Example 438]
Ki [1, 3]: 0.89 nM
Ki [2, 4]: 129 nM

C=CCC1Oc2ccc(OC(=O)CCCC(=O)N3CCCCC3)c(OC)c2-c2ccc3c(c21)C(C)=CC(C)(C)N3 (centres unmarked) [Example 439]
Ki [1, 3]: 1.2 nM
Ki [2, 4]: 202 nM

C=CCC1Oc2ccc(OC(=O)CCCC(=O)N3CCOCC3)c(OC)c2-c2ccc3c(c21)C(C)=CC(C)(C)N3 (centres unmarked) [Example 440]
Ki [1, 3]: 0.7 nM
Ki [2, 4]: 390 nM

COc1c(OC(=O)CCC(=O)N(C)C)ccc2c1-c1ccc3c(c1[C@H]([C@@H]1C=CCC1)O2)C(C)=CC(C)(C)N3 [Example 441, (−)2,5-Dihydro-9-(4-N,N-dimethylamino-4-oxo-butanoyloxy)-10-methoxy-2,2,4-trimethyl-5(S)-(3(S)-1-cyclopenten-3-yl)-1H-[1]benzopyrano[3,4-f]quinoline]
Ki [1, 3]: 0.42 nM
Ki [2, 4]: 328 nM

C=CCNC(=O)Oc1ccc2c(c1OC)-c1ccc3c(c1C(CC=C)O2)C(C)=CC(C)(C)N3 (centres unmarked) [Example 442, 10-Methoxy-9-(allylaminocarbonyl)oxy-5-(3-propenyl)-2,2,4-trimethyl-1H-2,5-dihydro-[1]benzopyrano[3,4-f]quinoline]
Ki [1]: 9.1 nM
Ki [2]: 8860 nM

C=CCC1Oc2ccc(OC(=O)NC3CCCCC3)c(OC)c2-c2ccc3c(c21)C(C)=CC(C)(C)N3 (centres unmarked) [Example 443, 10-Methoxy-9-(cyclohexylaminocarbonyl)-oxy-5-(3-propenyl)-2,2,4-trimethyl-1H-2,5-dihydro-[1]benzopyrano[3,4-f]quinoline]
Ki [1]: 63.5 nM
Ki [2]: ≥ 10000 nM
